# Laboratory results: patent US20230364029A1, “POLYMORPHIC FORMS OF (R)-2-HYDROXY-2-METHYL-4-(2,4,5-TRIMETHYL-3,6-DIOXOCYCLOHEXA-1,4-DIENYL)BUTANAMIDE” (PTC THERAPEUTICS, INC., priority 2014, published 2023)
# Columns and labels:
# [1] = tested on: cells from patients having Rett’s Disorder (Coriell GM-17567); assay: Fibroblast screen similar to Example 12, Rett’s Disorder cells; assay type: cell-based; details: Homo sapiens
# [2] = tested on: cells from patients having Leigh Syndrome (Coriell GMOI503A); assay: Fibroblast screen similar to Example 12, Leigh Syndrome cells; assay type: cell-based; details: Homo sapiens
# [3] = tested on: cells from patients having a CoQ2 mutation (CoQ10 Deficiency); assay: Fibroblast screen similar to Example 12, CoQ10 Deficiency cells; assay type: cell-based; details: Homo sapiens
# [4] = tested on: cells from patients having Leber’s Hereditary Optic Neuropathy (LHON) (Coriell GM03858); assay: Fibroblast screen similar to Example 12, LHON cells; assay type: cell-based; details: Homo sapiens
# [5] = tested on: cells from patients having Huntington’s Disease (Coriell GM 04281); assay: Fibroblast screen similar to Example 12, Huntington’s Disease cells; assay type: cell-based; details: Homo sapiens
# [6] = tested on: cells from patients having Amyotrophic Lateral Sclerosis (ALS) (Coriell ND29523); assay: Fibroblast screen similar to Example 12, ALS cells; assay type: cell-based; details: Homo sapiens
# [7] = tested on: auditory HEI-OC 1 cells; assay: Protection from cisplatin-induced ototoxicity (caspase3/7 activity); assay type: cell-based, mice; details: overnight pretreatment, 24 hours of 50 uM cisplatin
# Method: The conditionally immortalized auditory HEI-OC 1 cells from long-term cultures of transgenic mice Immortomouse™ cochleas as described in Kalinec, G. et al., Audiol. Nerootol. 2003; 8, 177-189/. were maintained in high glucose Dulbecco’s modified Eagle medium (DMEM) containing 10% FBS under permissive conditions, 33° C., 10%CO2. Cells were pretreated overnight with (R)-2-hydroxy-2-methyl-4-(2,4,5-trimethyl-3,6-dioxocyclohexa-1,4-dienyl)butanamide, and apoptosis was detected by caspase3/7 activity after 24 hours of 50 uM cisplatin incubation. Cells incubated in diluent alone were the controls.
# [8] = tested on: Human dermal fibroblasts from Friedreich’s Ataxia patients (GM04078); assay: Rescue of BSO-stressed FRDA fibroblasts; assay type: cell-based; details: Friedrich’s Ataxia, Calcein AM viability
# Method: An initial screen was performed to identify compounds effective for the amelioration of redox disorders. Test samples were tested for their ability to rescue FRDA fibroblasts stressed by addition of L-buthionine-(S,R)-sulfoximine (BSO), as described in Jauslin et al., Hum. Mol. Genet. 11(24):3055 (2002), Jauslin et al., FASEB J. 17:1972-4 (2003), and International Patent Application WO 2004/003565.
# MEM (a medium enriched in amino acids and vitamins, catalog no. 1-31F24-I) and Medium 199 (M199, catalog no. 1-21F22-I) with Earle’s Balanced Salts, without phenol red, were purchased from Bioconcept. Fetal Calf Serum was obtained from PAA Laboratories. Basic fibroblast growth factor and epidermal growth factor were purchased from PeproTech. Penicillin-streptomycin-glutamine mix, L-buthionine (S,R)-sulfoximine, and insulin from bovine pancreas were purchased from Sigma. Calcein AM was purchased from Anaspec. […]
# 100 microliters of PBS +Ca +Mg containing 1.2 micromolar Calcein AM were then added to each well. […] After that time fluorescence (excitation/emission wavelengths of 485 nm and 525 nm, respectively) was read on a Gemini fluorescence reader. […]
# [9] = Competitive slurries of Patterns A-F; assay type: physicochemical; details: competitive slurry of Patterns A-F in 0.5% MC/water, ambient
# Method: Competitive slurry experiments of Patterns A, B, C, D, E and F were initiated in IPA, IPA/2% water and 0.5% Methyl Cellulose in water at ambient conditions as summarized in Table 16. Approximately 100 mg of the starting material, Pattern A, was added to a glass vial fitted with a magnetic stir bar. Solvent was added to the vial and allowed to slurry with Pattern A for 15 minutes before approximately 10-20 mg of each relative Pattern (B, C, D, E and F) was added to each vial.
# [10] = tested on: cells from patients having Parkinson’s Disease (Coriell AG20439); assay: Fibroblast screen similar to Example 12, Parkinson’s Disease cells; assay type: cell-based; details: Homo sapiens
smiles,measurement,setting,value
"CC1=C(C)C(=O)C(CC[C@@](C)(O)C(N)=O)=C(C)C1=O [(R)-2-hydroxy-2-methyl-4-(2,4,5-trimethyl-3,6-dioxocyclohexa-1,4-dienyl)butanamide]",EC50,[1],< 100 nM
same,EC50,[2],< 100 nM
same,EC50,[3],< 100 nM
same,EC50,[4],< 100 nM
same,EC50,[5],< 100 nM
same,EC50,[6],< 100 nM
same,EC25,[7],+++ (+++ indicates less than 100 micromolar)
same,EC50,[8],< 100 nM
same,XRPD 24 hrs,[9],A/C
same,EC50,[10],100 to 500 nM
